Experimental data taken from patent US20220289680A1, “METHODS FOR MAKING DIMERIC NAPHTHALIMIDES AND SOLID STATE FORMS OF THE SAME” (Alucent Biomedical, Inc., priority 2018, published 2022).
Blank lines part the entries; values can stand above or below the compound they belong to.

Key:
Format in all cases: physicochemical
[1] = Solubility measurements in various solvents (visual inspection of dissolution); conditions: thermodynamic from solid
Procedure: The mass of a sample of Compound of Formula (I) was determined, and to that sample was added an aliquot of solvent, as shown in Table 5. Visual inspection was used to determine whether dissolution occurred. The solubility of Compound of Formula (I) in each solvent was calculated by dividing the weight of the sample by the total amount of solvent used to dissolve the sample. Table 6 lists the solubility of Compound of Formula (I) in each solvent.

[2] = Dynamic vapor sorption (DVS) analysis; conditions: 25° C.
Procedure: (§1) DVS analysis was carried out using a TA Instruments Q5000 Dynamic Vapor Sorption analyzer. The instrument was calibrated with standard weights and a sodium bromide standard for humidity. Approximately 10-25 mg of sample was loaded into a metal-coated quartz pan for analysis. The sample was analyzed at 25° C. with a maximum equilibration time of one hour in 10% relative humidity (RH) steps from 5% to 95% RH (adsorption cycle) and from 95% to 5% RH (desorption cycle). The movement from one step to the next occurred either after satisfying the equilibrium criterion of 0.01% weight change or, if the equilibrium criterion was not met, after one hour. The percent weight change values were calculated using Microsoft Excel®.

[3] = Post-DVS X-ray powder diffraction analysis (solid form stability); conditions: after DVS cycling 5%-95%-5% RH
Description: (§2) The Rigaku Smart-Lab X-ray diffraction system was configured for reflection Bragg-Brentano geometry using a line source X-ray beam. The x-ray source was a Cu Long Fine Focus tube that was operated at 40 kV and 44 ma. That source provided an incident beam profile (at the sample) that changed from a narrow line at high angles to a broad rectangle at low angles. Beam conditioning slits were used on the X-ray source to ensure that the maximum beam size is less than 10 mm, both along the line and normal to the line. The Rigaku Smart-Lab was operated to give peak widths of 0.1 degrees two-theta or less. The axial divergence of the X-ray beam was controlled by 5.0-degree Soller slits in both the incident and diffracted beam paths.
(§3) Powder samples were prepared in a low-background Si holder using light manual pressure to keep the sample surfaces flat and level with the reference surface of the sample holder. Each sample was analyzed from 2 to 40 degrees two-theta using a continuous scan of 6 degrees two-theta per minute, with an effective step size of 0.02 degrees two-theta.
as §1

[4] = Post-heating X-ray powder diffraction analysis (solid form stability); conditions: heated at 80° C. for 20 minutes
Description: as §2, §3
A sample of Form 2 was heated at 80° C. for 20 minutes. After cooling, the sample was analyzed using x-ray powder diffraction.

[5] = sample of Example 3 (synthesized by a method similar to Example 4, Form 1)
[6] = slurry-derived samples of Example 2

solubility ([1]; 1,1,1,3,3,3-hexafluoro-2-propanol (HFIPA), organic solvent or mixture): 18000 µg/mL
solubility ([1]; 1,4-dioxane, organic solvent or mixture): < 1000 µg/mL
solubility ([1]; 2,2,2-trifluoroethanol (TFE), organic solvent or mixture): 18000 µg/mL
solubility ([1]; 2-methyl tetrahydrofuran (2-MeTHF), organic solvent or mixture): < 1000 µg/mL
solubility ([1]; N,N-dimethylformamide (DMF), organic solvent or mixture, N,N-dinnethylformamide (DMF)): < 1000 µg/mL
solubility ([1]; acetone, organic solvent or mixture): < 1000 µg/mL
solubility ([1]; acetone/water (95/5, v/v), organic solvent or mixture): < 1000 µg/mL
solubility ([1]; acetonitrile/water (95/5, v/v), organic solvent or mixture): < 1000 µg/mL
solubility ([1]; dichloromethane (DCM), organic solvent or mixture): < 1000 µg/mL
solubility ([1]; dimethylsulfoxide (DMSO), organic solvent or mixture): < 1000 µg/mL
solubility ([1]; ethanol/water (95/5, v/v), organic solvent or mixture): < 1000 µg/mL
solubility ([1]; methyl ethyl ketone (MEK), organic solvent or mixture): < 1000 µg/mL
solubility ([1]; organic solvent or mixture, 2-propanol (2-PrOH)): < 1000 µg/mL
solubility ([1]; organic solvent or mixture, acetonitrile (CAN)): < 1000 µg/mL
solubility ([1]; organic solvent or mixture, diethyl ether (Et2O)): < 1000 µg/mL
solubility ([1]; organic solvent or mixture, ethanol (EtOH)): < 1000 µg/mL
solubility ([1]; organic solvent or mixture, ethyl acetate (EtOAc)): < 1000 µg/mL
solubility ([1]; organic solvent or mixture, methanol (MeOH)): < 1000 µg/mL
solubility ([1]; tetrahydrofuran (THF), organic solvent or mixture): < 1000 µg/mL
solubility ([1]; tetrahydrofuran/water (95/5, v/v), organic solvent or mixture): < 1000 µg/mL
solubility ([1]; toluene, organic solvent or mixture): < 1000 µg/mL
solubility ([1]; water): < 1000 µg/mL
DVS weight gain when cycling from 5% to 95% relative humidity [2, 5]: 16.36%
DVS weight loss upon drying at 5% relative humidity [2, 5]: 0.66%
DVS weight loss when cycling from 95% to 5% relative humidity [2, 5]: 15.51%
XRPD pattern after DVS cycling relative to the same sample prior to DVS analysis [3]: unchanged
SMILES: NCCOCCOCCNc1ccc2c3c(cccc13)C(=O)N(CCOCCOCCN1C(=O)c3cccc4c(NCCOCCOCCN)ccc(c34)C1=O)C2=O [Compound of Formula (I), 2,2′-((ethane-1,2-diylbis(oxy))bis(ethane-2,1-diyl))bis(6-((2-(2-(2-aminoethoxy)ethoxy)ethyl)amino)-1H-benzo[de]isoquinoline-1,3(2H)-dione)]

DVS weight gain when cycling from 5% to 95% relative humidity [2, 5]: 16.36%
DVS weight loss upon drying at 5% relative humidity [2, 5]: 0.66%
DVS weight loss when cycling from 95% to 5% relative humidity [2, 5]: 15.51%
DVS weight gain when cycling from 5% to 95% relative humidity [2, 6]: 13.04%
DVS weight loss upon drying at 5% relative humidity [2, 6]: 0.6%
DVS weight loss when cycling from 95% to 5% relative humidity [2, 6]: 13.12%
XRPD pattern after DVS cycling relative to the same sample prior to DVS analysis [3]: unchanged
SMILES: NCCOCCOCCNc1ccc2c3c(cccc13)C(=O)N(CCOCCOCCN1C(=O)c3cccc4c(NCCOCCOCCN)ccc(c34)C1=O)C2=O [Form 1, 2,2′-((ethane-1,2-diylbis(oxy))bis(ethane-2,1-diyl))bis(6-((2-(2-(2-aminoethoxy)ethoxy)ethyl)amino)-1H-benzo[de]isoquinoline-1,3(2H)-dione)]

DVS weight gain when cycling from 5% to 95% relative humidity [2, 6]: 7.2%
DVS weight loss upon drying at 5% relative humidity [2, 6]: 1.44%
DVS weight loss when cycling from 95% to 5% relative humidity [2, 6]: 14.63%
XRPD pattern after DVS cycling relative to the same sample prior to DVS analysis [3]: less crystalline
XRPD pattern after heating relative to the same sample before [4]: less crystalline
SMILES: NCCOCCOCCNc1ccc2c3c(cccc13)C(=O)N(CCOCCOCCN1C(=O)c3cccc4c(NCCOCCOCCN)ccc(c34)C1=O)C2=O [Form 2, 2,2′-((ethane-1,2-diylbis(oxy))bis(ethane-2,1-diyl))bis(6-((2-(2-(2-aminoethoxy)ethoxy)ethyl)amino)-1H-benzo[de]isoquinoline-1,3(2H)-dione)]
